Measured values reported in patent US20110281949A1, “METHODS AND COMPOSITIONS FOR TREATING NEURONAL DAMAGE AND MODULATING TRANSIENT RECEPTOR POTENTIAL CHANNELS” (priority 2008, published 2011).
“Also recorded” adds a separate entry of the source. Where two headings read alike, the source gives them in different places.

Columns and labels:
[1] = biological target: T1, TRPL channels (Drosophila melanogaster, UniProt P48994); experiment: Whole-cell patch clamp of TRPL channels expressed in S2 cells; details: for Effect on TRPL-mediated current / Effect on current when TRPL channels were not expressed (control): IX 500 μM, XVII 5 mM; for Effect on TRPL-mediated current: XIII 3 mM, XIV 1 mM, XII 2 mM, XV up to 5 mM, X 5 mM, XVI 5 mM, XI 10 mM; for TRPL Activation/Inhibition: TRPL expressed in S2 cells; for Effect on current when TRPL channels were not expressed (control): S2 cells without TRPL expression
T1 sequence (P48994 1-1124): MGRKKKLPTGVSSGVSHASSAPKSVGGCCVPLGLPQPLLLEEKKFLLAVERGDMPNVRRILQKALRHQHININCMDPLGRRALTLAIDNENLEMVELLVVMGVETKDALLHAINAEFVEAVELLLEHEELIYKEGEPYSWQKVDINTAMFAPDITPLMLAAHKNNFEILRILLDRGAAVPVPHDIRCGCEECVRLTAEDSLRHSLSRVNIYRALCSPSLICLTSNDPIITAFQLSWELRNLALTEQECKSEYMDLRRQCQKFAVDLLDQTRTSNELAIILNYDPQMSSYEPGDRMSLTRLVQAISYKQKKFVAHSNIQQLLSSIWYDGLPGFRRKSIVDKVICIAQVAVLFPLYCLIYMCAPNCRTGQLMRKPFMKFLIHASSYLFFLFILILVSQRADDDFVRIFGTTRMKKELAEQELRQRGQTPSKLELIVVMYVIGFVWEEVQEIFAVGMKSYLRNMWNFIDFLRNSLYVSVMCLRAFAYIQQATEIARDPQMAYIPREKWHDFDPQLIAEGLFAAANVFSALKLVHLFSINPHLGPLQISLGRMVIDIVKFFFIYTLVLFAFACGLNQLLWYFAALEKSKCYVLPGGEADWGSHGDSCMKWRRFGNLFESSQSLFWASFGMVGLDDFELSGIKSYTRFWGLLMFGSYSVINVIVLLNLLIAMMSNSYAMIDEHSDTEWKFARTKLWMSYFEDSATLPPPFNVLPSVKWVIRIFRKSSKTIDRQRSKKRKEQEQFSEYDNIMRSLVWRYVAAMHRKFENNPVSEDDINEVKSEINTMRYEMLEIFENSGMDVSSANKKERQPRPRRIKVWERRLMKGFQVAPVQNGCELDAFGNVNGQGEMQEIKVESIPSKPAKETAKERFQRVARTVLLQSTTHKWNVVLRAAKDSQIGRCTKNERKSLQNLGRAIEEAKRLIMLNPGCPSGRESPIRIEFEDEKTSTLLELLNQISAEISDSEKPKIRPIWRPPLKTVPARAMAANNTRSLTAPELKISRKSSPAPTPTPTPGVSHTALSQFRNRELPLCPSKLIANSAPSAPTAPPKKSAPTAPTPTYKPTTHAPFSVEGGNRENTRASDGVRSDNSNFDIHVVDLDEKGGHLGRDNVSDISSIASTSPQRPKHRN
Experimental: Schneider 2 cells were grown in 25 cm^2 flasks at 25° C. in Schneider medium (Beit HaEmek biological industries, Israel) supplemented with 10% fetal bovine serum (FBS) and 1% pen-strep reagent.
24 hours prior to the experiment, 500 μM CuSO4 was added to the medium of the S2 cells to induce expression of the channels. […] Currents were recorded at room temperature using borosilicate patch pipettes of 5-8 MΩ and an Axopatch 1D (Molecular Devices, Inc.) voltage-clamp amplifier. […] Currents were filtered using the 8-pole low pass Bessel filter of the patch-clamp amplifier at 5 kHz and sampled at 20 kHz. To measure I-V curves with minimal distortions, only cells with low (<10 MΩ) series resistance were used, and series resistance was compensated to ˜80%.
For S2 cells, the extracellular solution contained in mM: 150 NaCl, 5 KCl, 4 MgCl2, 10 TES, 25 proline, 5 alanine and 0.5 EGTA. The intracellular solution contained in mM: 130 K-gluconate, 10 TES, 2 MgCl2, 4 Mg-ATP and 0.4 Na-GTP. […] All solutions were titrated to pH 7.2. Cells were perfused via a BPS-8 valve control system (Scientific Instruments) at a rate of ˜30 chamber volumes per minute. Chemicals were applied via the perfusion system.

[2] = biological target: TRPA1 (Homo sapiens, UniProt O75762); details: irreversible, by covalent modification; cited from earlier work
[3] = biological target: T2, TRPM7 (Mus musculus, UniProt Q923J1); experiment: Whole-cell patch clamp of TRPM7 expressed in HEK cells; assay type: cell-based, mammalian; design: expressed in transfected cells; host or cells: HEK / HEK293 cells, transient, TransIT reagent (Mirus); details: for Effect on TRPM7-mediated current: HEK cells expressing TRPM7, IX 500 μM
Experimental: Human embryonic kidney (HEK) cells were grown in 25 cm^2 flasks at 37° C. in Dulbecco's Modified Eagle's Medium (DMEM) (Beit Haemek biological industries, Israel) supplemented with 10% FBS, 1% pen-strep and 1% L-Glutamine. TRPM7 (GenBank accession number NM—021450; SEQ ID No: 19; provided by David Clapham) and pIRES-eGFP were transiently expressed using TransIT™ reagent (Mirus).
Cells were seeded on polylysine-coated plates at a confluence of 25%, 24-72 hours prior to the experiment. […] Whole-cell, patch-clamp recordings were performed as described (Parnas et al, 2007). Currents were recorded at room temperature using borosilicate patch pipettes of 5-8 MΩ and an Axopatch 1D (Molecular Devices, Inc.) voltage-clamp amplifier. Voltage-clamp pulses were generated and data captured using a Digidata 1322A interfaced to a computer running the pClamp 9.2 software (Axon Instruments, Inc.). Currents were filtered using the 8-pole low pass Bessel filter of the patch-clamp amplifier at 5 kHz and sampled at 20 kHz. To measure I-V curves with minimal distortions, only cells with low (<10 MΩ) series resistance were used, and series resistance was compensated to ˜80%.
For HEK cells, the extracellular solution contained in mM: 140 NaCl, 2.8 KCl, 2 CaCl2, 1 MgCl2, HEPES and 10 glucose. The intracellular solution contained in mM: 140 Cs-Aspartate, 8 NaCl, 10 EGTA and 10 HEPES. All solutions were titrated to pH 7.2. Cells were perfused via a BPS-8 valve control system (Scientific Instruments) at a rate of ˜30 chamber volumes per minute. Chemicals were applied via the perfusion system.

[4] = system: TRPV3; details: literature; cited from earlier work
[5] = biological target: T2, TRPM7; experiment: cell-based; details: read-out: Inhibition of total presynaptic strength (S)
[6] = biological target: T3, native TRPL channels (Drosophila melanogaster, UniProt P48994); experiment: Light-induced current (LIC) in isolated ommatidia of trp^P343 mutant (native TRPL); assay type: cell-based; details: trp^P343 mutant photoreceptor cells, 500 μM
T3 construct: from tissue; host or cells: dissociated ommatidia of newly emerged white-eyed trpP343 flies
T3 sequence (P48994 1-1124): T1 sequence (P48994 1-1124)
Text: Series resistance was compensated to ˜80%.
All solutions were titrated to pH 7.15. […] All solutions were titrated to pH 7.2. […] Chemicals were applied via the perfusion system.

[7] = biological target: TRPM8 (Homo sapiens, UniProt Q7Z2W7); details: literature (Vogt-Eisele 2007); cited from earlier work
[8] = system: TRPM7; details: 500 μM
[9] = biological target: T2, TRPM7; details: 500 μM
[10] = system: closed head injury; experiment: Mouse model of closed head injury, Neurological Severity Score (NSS); assay type: in vivo; details: subcutaneous 0.751 μg/gr body weight 15 min after injury, up to 27 days
Text: Brain injury is known to disrupt the blood-brain barrier and to induce edema and release auto-destructive factors that produce delayed neuronal damage and neuronal cell death. An experimental model of […] (CHI) in the rat and mouse has been developed and studied mechanistically (Beni-Adani et al 2001; Chen et al 1996). In the present study, CHI was induced under ether anesthesia by allowing a metal rod (333 g) to fall over the exposed skull covering the left hemisphere in the midcornal plane of a 35-45 g Mouse. […] Neurobehavioral evaluations were performed over the next 27 d.
A Neurological Scoring System (NSS) was used to determine ability to perform 10 different behavioral tasks, involving motor ability, balance, and alertness of the mice (Table 4). One point is assigned for failing to perform each task; thus, a normal uninjured mouse scores 0. Injury severity is defined by initial NSS, which is evaluated 1 h post-CHI and referred to as “NSS1.” This value is also a reliable predictor of clinical outcome, with fatal or near-fatal injury corresponding to NSS1 of 7-8; moderate injury to NSS1 of 5-6, and mild injury to NSS1 of <4.

[11] = biological target: T4, TRP (Drosophila melanogaster, UniProt P19334); experiment: Light-induced current (LIC) in photoreceptor cells of wild-type flies (native TRP)
T4 sequence (P19334 1-1275): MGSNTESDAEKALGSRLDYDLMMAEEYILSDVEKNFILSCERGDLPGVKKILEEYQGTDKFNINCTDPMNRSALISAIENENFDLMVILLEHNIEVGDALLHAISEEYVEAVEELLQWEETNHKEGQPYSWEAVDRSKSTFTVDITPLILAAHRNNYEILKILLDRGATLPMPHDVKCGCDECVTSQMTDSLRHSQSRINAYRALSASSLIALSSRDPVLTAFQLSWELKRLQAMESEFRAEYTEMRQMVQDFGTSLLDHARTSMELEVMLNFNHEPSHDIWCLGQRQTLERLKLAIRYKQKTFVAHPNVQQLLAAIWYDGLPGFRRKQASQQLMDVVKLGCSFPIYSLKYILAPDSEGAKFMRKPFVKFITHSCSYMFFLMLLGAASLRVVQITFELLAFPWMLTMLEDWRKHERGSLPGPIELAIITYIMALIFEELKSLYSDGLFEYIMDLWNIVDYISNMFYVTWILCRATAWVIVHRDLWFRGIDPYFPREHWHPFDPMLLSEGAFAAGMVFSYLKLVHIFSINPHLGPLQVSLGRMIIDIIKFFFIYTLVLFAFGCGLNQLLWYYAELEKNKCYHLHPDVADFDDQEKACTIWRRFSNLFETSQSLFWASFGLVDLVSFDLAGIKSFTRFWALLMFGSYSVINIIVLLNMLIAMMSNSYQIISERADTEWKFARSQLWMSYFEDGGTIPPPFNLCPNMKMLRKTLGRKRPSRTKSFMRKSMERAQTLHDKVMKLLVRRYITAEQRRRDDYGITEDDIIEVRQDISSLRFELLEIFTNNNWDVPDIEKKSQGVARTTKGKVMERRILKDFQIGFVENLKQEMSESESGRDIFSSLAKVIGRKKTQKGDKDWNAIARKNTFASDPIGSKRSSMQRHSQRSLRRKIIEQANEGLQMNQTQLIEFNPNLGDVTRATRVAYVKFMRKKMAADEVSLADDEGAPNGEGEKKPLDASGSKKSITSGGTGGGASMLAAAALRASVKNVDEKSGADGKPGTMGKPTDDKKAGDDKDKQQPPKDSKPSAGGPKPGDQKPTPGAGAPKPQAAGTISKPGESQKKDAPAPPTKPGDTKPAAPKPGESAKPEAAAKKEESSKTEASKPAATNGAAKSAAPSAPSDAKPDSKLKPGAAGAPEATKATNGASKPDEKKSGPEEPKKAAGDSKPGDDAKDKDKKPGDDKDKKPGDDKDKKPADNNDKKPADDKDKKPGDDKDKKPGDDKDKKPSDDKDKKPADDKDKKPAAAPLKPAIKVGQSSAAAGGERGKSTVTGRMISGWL
Experimental: Drosophila white-eyed flies of the following strains were used: wt and trp^P343. Flies were raised at 24° C. in a 12 h light/dark cycle.
A tungsten trans-illumination light (12 V, 100 W halogen lamp, in conjunction with a Schott OG 590 orange edge filter and a KG3 heat filter) provided illumination for stimulation of the photoreceptors in all experiments. Stimulating light was applied via a condenser lens (Carl Zeiss Microlmaging, Inc.) and was attenuated by neutral density filters. The maximal luminous intensity of the unattenuated orange light at the level of the ommatidia was 3.2 mW/cm^2.
Dissociated Drosophila ommatidia were prepared from newly emerged flies (<1 h after eclosion) that were kept in the dark 12-18 h before the experiment. Whole-cell, patch-clamp recordings were performed as described in Peretz et al, 1994. Currents were recorded at 21° C. using borosilicate patch pipettes of 8-10 MO and an Axopatch 200B™ (Molecular Devices, Inc.) voltage-clamp amplifier. Voltage-clamp pulses were generated and data captured using a Digidata 1200™ interfaced to a computer running pClamp 8.0 software (Axon Instruments, Inc.). Currents were filtered using the 8-pole low pass Bessel filter of the patch-clamp amplifier at 5 kHz and sampled at 10 kHz. Series resistance was compensated to ˜80%. […]

T2 sequence (Q923J1 whole entry): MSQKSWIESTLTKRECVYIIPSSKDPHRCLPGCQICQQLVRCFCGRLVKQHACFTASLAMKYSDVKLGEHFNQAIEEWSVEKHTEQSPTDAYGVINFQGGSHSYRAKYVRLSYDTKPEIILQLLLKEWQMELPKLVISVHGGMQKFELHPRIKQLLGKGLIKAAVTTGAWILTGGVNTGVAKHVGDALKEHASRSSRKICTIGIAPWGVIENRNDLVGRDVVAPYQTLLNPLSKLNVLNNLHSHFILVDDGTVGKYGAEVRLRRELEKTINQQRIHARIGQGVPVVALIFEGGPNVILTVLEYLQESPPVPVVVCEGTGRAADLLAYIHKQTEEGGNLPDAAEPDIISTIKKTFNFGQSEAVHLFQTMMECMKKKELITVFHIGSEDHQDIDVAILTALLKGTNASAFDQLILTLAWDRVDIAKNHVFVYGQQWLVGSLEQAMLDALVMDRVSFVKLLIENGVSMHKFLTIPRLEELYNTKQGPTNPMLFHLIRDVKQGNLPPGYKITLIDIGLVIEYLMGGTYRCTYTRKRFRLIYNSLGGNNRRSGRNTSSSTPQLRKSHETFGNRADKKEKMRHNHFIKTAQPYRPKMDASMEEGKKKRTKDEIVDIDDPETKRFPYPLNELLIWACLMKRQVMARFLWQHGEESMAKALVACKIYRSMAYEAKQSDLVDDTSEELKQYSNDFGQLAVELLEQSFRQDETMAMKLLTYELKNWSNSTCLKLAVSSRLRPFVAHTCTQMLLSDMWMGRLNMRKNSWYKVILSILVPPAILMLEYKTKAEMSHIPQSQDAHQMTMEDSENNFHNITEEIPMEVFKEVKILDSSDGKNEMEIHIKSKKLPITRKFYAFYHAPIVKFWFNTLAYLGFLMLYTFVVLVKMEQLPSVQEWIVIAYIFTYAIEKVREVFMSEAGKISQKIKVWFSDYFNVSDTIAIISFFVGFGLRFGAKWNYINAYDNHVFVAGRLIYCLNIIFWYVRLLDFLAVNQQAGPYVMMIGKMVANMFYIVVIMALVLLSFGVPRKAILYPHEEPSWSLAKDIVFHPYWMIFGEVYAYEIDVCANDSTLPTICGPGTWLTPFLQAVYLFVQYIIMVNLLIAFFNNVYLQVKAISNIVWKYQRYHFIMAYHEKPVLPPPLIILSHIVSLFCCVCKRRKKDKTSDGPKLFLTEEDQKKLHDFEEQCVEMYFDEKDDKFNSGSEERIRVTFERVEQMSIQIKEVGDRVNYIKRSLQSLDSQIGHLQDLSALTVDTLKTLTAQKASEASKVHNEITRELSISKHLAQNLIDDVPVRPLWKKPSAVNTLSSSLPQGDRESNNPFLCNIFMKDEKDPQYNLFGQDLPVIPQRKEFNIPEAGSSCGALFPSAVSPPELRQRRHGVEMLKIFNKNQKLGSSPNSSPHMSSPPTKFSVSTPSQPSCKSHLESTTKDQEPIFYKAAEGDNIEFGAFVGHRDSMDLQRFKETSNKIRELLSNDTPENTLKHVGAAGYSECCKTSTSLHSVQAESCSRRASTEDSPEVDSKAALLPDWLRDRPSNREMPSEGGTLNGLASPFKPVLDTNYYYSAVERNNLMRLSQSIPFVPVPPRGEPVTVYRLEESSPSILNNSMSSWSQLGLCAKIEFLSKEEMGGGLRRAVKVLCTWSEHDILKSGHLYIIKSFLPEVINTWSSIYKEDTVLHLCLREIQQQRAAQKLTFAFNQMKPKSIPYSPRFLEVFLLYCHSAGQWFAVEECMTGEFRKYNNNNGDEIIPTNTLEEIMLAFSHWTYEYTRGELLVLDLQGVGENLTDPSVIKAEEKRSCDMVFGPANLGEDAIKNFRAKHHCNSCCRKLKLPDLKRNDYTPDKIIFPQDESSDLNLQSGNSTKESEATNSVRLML
Sequence of TRPA1 (O75762 whole entry, species assumed): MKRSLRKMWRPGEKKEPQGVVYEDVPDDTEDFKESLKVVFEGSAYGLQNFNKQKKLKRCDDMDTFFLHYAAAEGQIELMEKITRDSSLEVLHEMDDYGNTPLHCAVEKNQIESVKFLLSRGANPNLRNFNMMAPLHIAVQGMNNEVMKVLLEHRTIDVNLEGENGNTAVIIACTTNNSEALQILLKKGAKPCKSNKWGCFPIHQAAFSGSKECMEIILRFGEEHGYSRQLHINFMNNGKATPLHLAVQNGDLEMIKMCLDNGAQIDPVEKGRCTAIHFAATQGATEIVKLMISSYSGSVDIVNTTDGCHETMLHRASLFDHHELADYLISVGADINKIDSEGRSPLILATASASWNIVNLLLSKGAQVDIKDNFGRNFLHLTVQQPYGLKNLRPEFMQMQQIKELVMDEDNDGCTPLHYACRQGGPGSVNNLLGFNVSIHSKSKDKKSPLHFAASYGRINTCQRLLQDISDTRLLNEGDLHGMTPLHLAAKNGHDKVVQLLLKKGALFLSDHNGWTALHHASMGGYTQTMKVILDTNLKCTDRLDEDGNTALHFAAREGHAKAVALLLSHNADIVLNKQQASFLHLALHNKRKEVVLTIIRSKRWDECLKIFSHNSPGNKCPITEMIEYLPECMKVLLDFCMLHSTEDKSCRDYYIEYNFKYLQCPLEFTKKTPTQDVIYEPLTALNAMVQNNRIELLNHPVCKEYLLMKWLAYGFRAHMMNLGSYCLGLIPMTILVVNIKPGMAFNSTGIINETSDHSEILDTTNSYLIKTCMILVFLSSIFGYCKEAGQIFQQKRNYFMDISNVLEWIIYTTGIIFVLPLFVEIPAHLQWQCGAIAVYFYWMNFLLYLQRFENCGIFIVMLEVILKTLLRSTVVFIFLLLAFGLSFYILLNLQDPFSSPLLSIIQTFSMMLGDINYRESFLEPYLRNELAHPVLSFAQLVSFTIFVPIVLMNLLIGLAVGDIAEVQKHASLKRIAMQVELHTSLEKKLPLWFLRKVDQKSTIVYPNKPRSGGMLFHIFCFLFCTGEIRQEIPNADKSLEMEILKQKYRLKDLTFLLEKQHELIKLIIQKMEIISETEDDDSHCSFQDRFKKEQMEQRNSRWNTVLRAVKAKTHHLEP
Sequence of TRPM8 (Q7Z2W7 whole entry, species assumed): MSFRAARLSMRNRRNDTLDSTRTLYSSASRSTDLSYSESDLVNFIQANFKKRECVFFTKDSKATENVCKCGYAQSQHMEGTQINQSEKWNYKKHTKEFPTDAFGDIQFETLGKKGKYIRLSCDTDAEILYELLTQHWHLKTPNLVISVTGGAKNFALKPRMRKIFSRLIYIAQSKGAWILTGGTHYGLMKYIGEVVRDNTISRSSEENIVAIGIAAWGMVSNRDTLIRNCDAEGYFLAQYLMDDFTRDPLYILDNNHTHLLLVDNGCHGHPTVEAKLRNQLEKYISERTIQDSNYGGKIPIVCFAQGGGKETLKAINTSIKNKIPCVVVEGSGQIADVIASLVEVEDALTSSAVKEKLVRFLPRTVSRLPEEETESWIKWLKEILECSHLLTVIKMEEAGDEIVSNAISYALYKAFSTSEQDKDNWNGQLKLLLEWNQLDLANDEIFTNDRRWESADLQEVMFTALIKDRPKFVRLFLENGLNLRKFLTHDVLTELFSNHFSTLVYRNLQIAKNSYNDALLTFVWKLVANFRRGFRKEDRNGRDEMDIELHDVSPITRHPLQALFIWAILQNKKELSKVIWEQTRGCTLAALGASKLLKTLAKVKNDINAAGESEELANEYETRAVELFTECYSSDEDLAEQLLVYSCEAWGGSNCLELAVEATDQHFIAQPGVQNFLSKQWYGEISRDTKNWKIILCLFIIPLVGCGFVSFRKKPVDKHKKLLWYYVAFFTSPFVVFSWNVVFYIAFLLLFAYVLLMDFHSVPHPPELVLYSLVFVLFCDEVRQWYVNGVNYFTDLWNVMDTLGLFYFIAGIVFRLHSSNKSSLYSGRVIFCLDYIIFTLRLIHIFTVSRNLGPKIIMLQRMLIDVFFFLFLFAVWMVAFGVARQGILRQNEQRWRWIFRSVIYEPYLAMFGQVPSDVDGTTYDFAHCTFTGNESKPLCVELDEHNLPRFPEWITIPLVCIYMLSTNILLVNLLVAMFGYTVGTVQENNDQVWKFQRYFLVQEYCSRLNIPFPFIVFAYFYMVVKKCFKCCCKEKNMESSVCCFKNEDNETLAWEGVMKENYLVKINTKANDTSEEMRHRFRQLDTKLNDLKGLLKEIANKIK

Structure (SMILES)	Effect on TRPL-mediated current ([1]; S2 cells)	TRPL Activation/Inhibition [1]	Reversibility of effect on TRPL channel ([1]; S2 cells)	Effect on TRPM7-mediated current [3]	TRPV3 activation [4]	also measured
C=C(C)[C@@H]1CC=C(C)C(O)C1 (stereo partly drawn) [Compound XVI, (5R)-5-Isopropenyl-2-methyl-2-cyclohexenol]	large decrease in the TRPL-dependent current	Inhibition	–	–	–	IC50 [1]: 4220 ± 400 µM
O=C/C=C/c1ccccc1 [Compound XII, trans-3-Phenyl-2-propenal]	inhibited TRPL activity; also recorded: decreased the TRPL-mediated current	Inhibition	reversible	inhibit TRPM7	–	IC50 ([1]; read-out: IC50 of TRPL inhibition, S2 cells, whole-cell patch clamp): 1600 ± 300 µM; TRPA1 activation [2]: activated
C=CCc1ccc(O)c(OC)c1 [Compound XIII, 2-Methoxy-4-(2-propenyl)phenol]	inhibited TRPL; also recorded: large decrease in the TRPL-dependent current	Inhibition	–	–	activate TRPV3	–
Cc1ccc(C(C)C)cc1O [Compound IX, 5-Isopropyl-2-methylphenol]	Large suppression of the current; also recorded: large decrease in the TRPL-dependent current	Inhibition	reversibly blocked	Large and dose-dependent suppression of the current; also recorded: dramatic decrease in the TRPM7 mediated current	believed to activate TRPV3	inhibition at 500 µM [5]: 47 ± 3%; Effect on light-induced current (LIC) amplitude, native TRPL [6]: dramatically reduced LIC amplitude; also recorded: inhibits the native TRPL channels; Effect on TRPM8 [7]: only a minimal effect on TRPM8; ΔF median of boutons after compound application ([8]; control neurons, 88 before): 87 arbitrary units; Number of FM-detectable boutons after compound application ([8]; control neurons, 764 before): 845; Effect on presynaptic activity in control neurons ([8]; neurons lacking TRPM7-GFP): did not affect presynaptic activity; Effect on vesicle release in control neurons ([8]; neurons lacking TRPM7-GFP): did not alter vesicle release; Effect on vesicle release in TRPM7-GFP-expressing neurons ([9]; 30 APs@1 Hz): significantly decreased vesicle release; ΔF median of boutons after compound application ([9]; TRPM7-GFP-expressing neurons, 73 before): 75 arbitrary units; Number of FM-detectable boutons after compound application ([9]; TRPM7-GFP-expressing neurons, 578 before): 318; NSS recovery after closed head injury vs saline [10]: NSS scores dropped significantly more; also recorded: significant protective effect from brain damage; Effect on light-induced current (LIC) of WT flies, native TRP [11]: inhibited LIC of WT flies; Effect on current when TRPL channels were not expressed (control) [1]: no effect; Reversibility of TRPM7 block ([3]; HEK cells): reversibly blocked activity; Effect in mock-transfected HEK293 cells (TRPM7 not expressed) ([3]; control): no effect was observed
CC(C)[C@@H]1CC[C@@H](C)C[C@H]1O [Compound X, 2-Isopropyl-5-methylcyclohexanol]	large decrease in the TRPL-dependent current	Inhibition	–	inhibit TRPM7	–	IC50 [1]: 1810 ± 130 µM
Cc1ccc(C(C)C)c(O)c1 [Compound XIV, 2-Isopropyl-5-methylphenol]	inhibited TRPL; also recorded: large decrease in the TRPL-dependent current	Inhibition	–	–	activate TRPV3	–
O=C(O)/C=C/c1ccc(O)c(O)c1 [Compound XV, 3,4-Dihydroxycinnamic acid]	did not block TRPL	No effect	–	–	–	–
CC12CCC(CC1=O)C2(C)C (centres unmarked) [Compound XI, 1,7,7-Trimethylbicyclo[2.2.1]heptan-2-one]	activated the TRPL channel	Activation	–	–	believed to activate TRPV3	–
CC1(C)C2CCC1(C)C(O)C2 [Compound XVII, endo-(1R)-1,7,7-Trimethylbicyclo[2.2.1]heptan-2-ol]	activated the TRPL channel; also recorded: activated the TRPL-mediated current	Activation	completely reversible rapid activation	inhibit TRPM7	believed to activate TRPV3	Effect on current when TRPL channels were not expressed (control) [1]: no effect
